What was measured:
IPG P-type = assay: extractable IPG P-type from tissues before and after insulin (PDH phosphatase assay); format: in vivo, rats; details: 2 minutes after injection with insulin
Procedure: FIGS. 4C and 4D show the steady state concentration and the effect of insulin on extractable IPG P-type from heart and other tissues from adult male rats. […] The solid columns show results in the absence of insulin, while the hatched columns show results 2 minutes after injection with insulin. 1 unit is the amount of P-type IPG causing a 50% increase in the activity of PDH phosphatase or a 50% decrease in the activity of cAMP dependent protein kinase.
Under anoxic conditions, this is difficult since the enzyme PDH kinase is activated. The action of this enzyme is to inactivate the PDH complex, which is involved in the biosynthesis of acetyl-CoA and NADH. The NADH so generated in the reperfusion period is oxidized by the electron transport chain to generate ATP. The acetyl-CoA is a substrate for the Krebs cycle in which one glucose can be oxidized to 36 ATPs via the generation of further NADH. The action of IPG-P type mediators is to activate PDH phosphatase which counteracts the PDH kinase and allows for activation of the PDH complex.

rat heart preparations = assay: tissue PRPP concentration of rat heart preparations in anoxic conditions; details: ribose added to the medium
Text: Perhaps of greater significance was our observation of the decline in cellular PRPP in a range of tissues, including heart, in experimental diabetes (see Table 1).

[1] = system: myocardial adenine nucleotides; details: cited from earlier work

Compound: insulin
- IPG P-type activity recovered from tissue upon insulin infusion (IPG P-type; adipose tissue): decreased activity
- IPG P-type activity recovered from tissue upon insulin infusion (IPG P-type; brain): decreased activity
- IPG P-type activity recovered from tissue upon insulin infusion (IPG P-type; heart): decreased activity
- IPG P-type activity recovered from tissue upon insulin infusion (IPG P-type; kidney): increase in activity
- IPG P-type activity recovered from tissue upon insulin infusion (IPG P-type; muscle): increase in activity

Compound: O=C[C@H](O)[C@H](O)[C@H](O)CO [ribose]
- tissue PRPP concentration (rat heart preparations): partially restored
- restitution of myocardial adenine nucleotides ([1]; Zimmer (1980)): accelerated
- global heart function ([1]; overloaded and catecholamine-stimulated heart and infarcted heart rat models, Zimmer (1996)): improvement in global heart function
- normalisation of depressed heart function ([1]; rats, Zimmer (1983)): accelerated

— patent publication US6900182B1, “Inositolphosphoglycan and ribose for treatment of ischaemia-reperfusion injury” (Sylus Pharmaceuticals Ltd., priority 1998, dated 2005)
